Measured values published in patent US20070027143A1, “Novel substituted 2,3-benzodiazepine derivatives” (priority 2003, published 2007).
Read-outs that look alike come from different tables or passages of the source. Marks after values point to notes of the source that are not given here.

How the values were obtained:
[1] = system: CD1 mice; assay: Anticonvulsant activity, 4-aminopyridine induced seizures; type: in vivo; settings: Mus musculus; po.; read-out: 4-AP ED50
Procedure: (§1) The anti-seizure activity of some of the compounds of the present invention was measured using the electroshock test (J. Pharmacol. Exp. Ther. 106:319 (1952)) and the results are shown in Table 3. The spasmolytic activity of the compounds of the present invention was investigated by using e.g., pentetrazole (J. Pharmacol. Exp. Ther. 108:168 (1953)), strychnine (J. Pharmacol. Exp. Ther. 129:75 (1960)), bemegrid, nicotine, bicuculline, 4-aminopyridine and mercapto-propionic acid for inducing the clonic-tonic seizures and lethality. The investigated compounds were administered orally in three doses using 10 male CD1 mice/dose, usually 60 min before the induction of seizures.

[2] = system: AMPA receptors; assay: Inhibition of AMPA induced spreading depression in isolated chicken retina; type: cell-based; settings: AMPA (5 μM)
Procedure: (§2) In the first model the spreading depression caused by glutamate agonists (i.e., AMPA or kainate) was studied, while in the second one the transmembrane ion-current induced by the activation of the AMPA/kainate receptors was measured directly.
Inhibition of AMPA Induced “Spreading Depression” in Isolated Chicken Retina—
The AMPA antagonistic effect of the compounds of formula (I) or (II) was studied in the in vitro “spreading depression” model (Sheardown Brain Res. 607:189 (1993)). The AMPA antagonists prolong the latency of the development of the “spreading depression” caused by AMPA (5 μM).

[3] = system: Lewis rats; assay: Autoimmune encephalomyelitis model, neurological (clinical) symptoms; type: in vivo; settings: for change in vivo at 3.75 mg/kg / change in vivo at 7.5 mg/kg / change in vivo at 1.875 mg/kg: Rattus norvegicus, ip, read-out: Neurological symptoms (change compared to controls, %); for change in vivo at 3.75 mg/kg: 3.75 mg/kg ip.; for change in vivo at 7.5 mg/kg / Neurological symptoms (change, %): 7.5 mg/kg ip.; for Neurological symptoms (change, %): day 24 after immunization; for change in vivo at 1.875 mg/kg: 1.875 mg/kg ip.
Procedure: The compounds were administered intraperitoneally twice a day for 8 days, starting on day 10 after immunization and with an observation period until symptoms were present. 5-15 animals were used in each group. Their weights were 160-180 g (Lewis rats, female) and 180-220 g (Lewis rats, male). The activity of the compounds was determined according to the symptom score values, and compared to those of the control group (see Table 6). Histopathological investigations were carried out on the brain stem, the spinal cord, and the sciatic nerve (Gijbels et al., J. Clin. Invest. 94:2177 (1994)) using 5-10 animal/group.
(§3) Compounds of the invention were further investigated in the autoimmune encephalomyelitis model in rats as outlined in this description before, with the variance that 10 animals were used in each group, of weights 140-160 g (Lewis rats, female).

[4] = system: CD1 mice; assay: Anticonvulsant activity, 3-mercapto-propionic acid induced seizures; type: in vivo; settings: Mus musculus; po.; read-out: 3-MPA ED50
Procedure: as §1

[5] = system: CD1 mice; assay: Anticonvulsant activity, bemegride induced seizures; type: in vivo; settings: Mus musculus; po.; read-out: Bemegride ED50
Procedure: as §1

[6] = system: CD1 mice; assay: Anticonvulsant activity, pentetrazole induced seizures; type: in vivo; settings: Mus musculus; po.; read-out: Pentetrazol ED50
Procedure: as §1

[7] = system: CD1 mice; assay: Anticonvulsant activity, nicotine induced seizures; type: in vivo; settings: Mus musculus; po.
Procedure: as §1

[8] = system: AMPA/kainate receptors; assay: Inhibition of AMPA induced whole-cell current in acutely isolated cerebellar Purkinje cells (patch clamp); type: cell-based; settings: 5 μM AMPA, read-out: Inhibition of the ion-currents caused by 5 μM AMPA, IC50
Procedure: as §2
The activity of the compounds of the present invention was studied on acutely isolated cerebellar Purkinje cells by measuring the whole-cell current induced by 5 μM AMPA according for example to the method described by Bleakman et al (Neuropharmacology 12:1689 (1996)).

[9] = system: rats; assay: Inhibition of focal ischemia, middle cerebral artery occlusion (MCAO) test; type: in vivo
Procedure: The focal anti-ischemic activity of the compounds of formula (I) or (II) of the present invention was measured by the “middle cerebral artery occlusion” (MCAO) test (Bartus Stroke 11:2265 (1994) and Sydserff et al, Brit. J. Pharmacol. 114:1631 (1995)). […] After a histological process (TTC staining) 24 h later, the infarcted area was determined by a computer assisted scanner program and was compared to the results obtained in a control group treated with the vehicle.

[10] = system: CD1 mice; assay: Anticonvulsant activity, bicuculline induced seizures; type: in vivo; settings: Mus musculus; po.; read-out: Bicuculline ED50
Procedure: as §1

[11] = system: CD1 mice; assay: Muscle relaxant activity, inclined screen test; type: in vivo; settings: Mus musculus, ip
[12] = system: CD1 mice; assay: Muscle relaxant activity, rotarod test; type: in vivo; settings: Mus musculus, ip
[13] = system: CD1 mice; assay: Anticonvulsant activity, strychnine induced seizures; type: in vivo; settings: Mus musculus; po.; read-out: Strychnine ED50
Procedure: as §1

[14] = system: CD1 mice; assay: Anticonvulsant activity, maximal electroshock seizure (MES) test; type: in vivo; settings: Mus musculus, po.
Procedure: as §1

[15] = system: Lewis rats; assay: Autoimmune encephalomyelitis model, histological symptoms; type: in vivo; settings: 7.5 mg/kg ip., day 24 after immunization
Procedure: 5-15 animals were used in each group. Their weights were 160-180 g (Lewis rats, female) and 180-220 g (Lewis rats, male). The activity of the compounds was determined according to the symptom score values, and compared to those of the control group (see Table 6). Histopathological investigations were carried out on the brain stem, the spinal cord, and the sciatic nerve (Gijbels et al., J. Clin. Invest. 94:2177 (1994)) using 5-10 animal/group.
as §3

[16] = system: CD1 mice; assay: Anti-tremor effect, oxotremorine induced tremor; type: in vivo; settings: Mus musculus; po., Litchfield-Wilcoxon, limits in brackets; read-out: ED50, tremor induced by Oxotremorin 1 mg/kg ip.
[17] = system: CD1 mice; assay: Anti-tremor effect, GYKI 20039 induced tremor; type: in vivo; settings: Mus musculus; po., Litchfield-Wilcoxon, limits in brackets; read-out: ED50, tremor induced by GYKI 20039 10 mg/kg ip.
[18] = 2 mg/kg iv. 6x in every 30 min, first treatment 180 min after occlusion
[19] = 0.5 h, 30′, read-out: MES 30′ ED50
[20] = 1 h, 60 min before induction, read-out: MES (MES 60′) ED50

C[C@@H]1Cc2cc3c(cc2C(c2ccc(N)cc2)=NN1C1=NCCS1)OCO3 [Example 69, (R)-5-(4-Aminophenyl)-7-(4,5-dihydro-thiazol-2-yl)-8-methyl-8,9-dihydro-7H-1,3-dioxolo-[4,5-h][2,3]benzodiazepine]
ED50 [1]: 16.6 mg/kg | IC50 [2]: 900 nM | change in vivo at 3.75 mg/kg ([3]; female rats, 0-8 day): 43% | change in vivo at 3.75 mg/kg ([3]; female rats, 0-14 day): 58% | change in vivo at 3.75 mg/kg ([3]; male rats, 0-8 day): 35% | change in vivo at 3.75 mg/kg ([3]; male rats, 0-14 day): -40% | change in vivo at 7.5 mg/kg ([3]; female rats, 0-8 day): -29% | change in vivo at 7.5 mg/kg ([3]; female rats, 0-14 day): -24% | change in vivo at 7.5 mg/kg ([3]; male rats, 0-8 day): -51% | change in vivo at 7.5 mg/kg ([3]; male rats, 0-14 day): -50% | ED50 [4]: 34.2 mg/kg | ED50 [5]: 33.3 mg/kg | ED50 [6]: 46.9 mg/kg | ED50 [7]: 16.8 mg/kg | IC50 [8]: 420 nM | Decrease of the infracted area in % compared to that of the control [9, 18]: 28% | ED50 [10]: 18.1 mg/kg | ED50 [11]: 12.2 mg/kg | ED50 [12]: 1.2 mg/kg | ED50 [13]: 27.7 mg/kg | ED50 [14, 19]: 8.7 mg/kg | ED50 [14, 20]: 14.7 mg/kg | melting point: 148 to 150 °C

C[C@@H]1Cc2cc3c(cc2C(c2ccc(N)cc2)=NN1c1nccs1)OCO3 [Example 61, (R)-5-(4-Aminophenyl)-8-methyl-7-(2-thiazolyl)-8,9-dihydro-7H-1,3-dioxolo[4,5-h][2,3]benzodiazepine]
ED50 [1]: 17.6 mg/kg | IC50 [2]: 1000 to 5000 nM | Neurological symptoms (change, %) ([3]; female rats): −53% | Neurological symptoms (change, %) ([3]; male rats): −54% | change in vivo at 1.875 mg/kg ([3]; female rats, 0-8 day): -18% | change in vivo at 1.875 mg/kg ([3]; female rats, 0-14 day): -7% | change in vivo at 1.875 mg/kg ([3]; male rats, 0-8 day): 13% | change in vivo at 1.875 mg/kg ([3]; male rats, 0-14 day): 5% | change in vivo at 3.75 mg/kg ([3]; female rats, 0-8 day): -44% | change in vivo at 3.75 mg/kg ([3]; female rats, 0-14 day): -48% | change in vivo at 3.75 mg/kg ([3]; male rats, 0-8 day): -44% | change in vivo at 3.75 mg/kg ([3]; male rats, 0-14 day): -46% | change in vivo at 7.5 mg/kg ([3]; female rats, 0-8 day): -56% | change in vivo at 7.5 mg/kg ([3]; female rats, 0-14 day): -53% | change in vivo at 7.5 mg/kg ([3]; male rats, 0-8 day): -60% | change in vivo at 7.5 mg/kg ([3]; male rats, 0-14 day): -63% | Activity compared to the reference compound (histopathological and pharmacological investigations) ([3]; result in words): more active than the reference compound GYKI 53773 | ED50 [4]: 11 mg/kg | ED50 [5]: 34.4 mg/kg | ED50 [6]: 32.5 mg/kg | ED50 [7]: 59.3 mg/kg | IC50 [8]: 490 nM | Decrease of the infracted area in % compared to that of the control ([9]; 1 mg/kg iv. 6x in every 30 min, first treatment 120 min after occlusion): 63** % | Decrease of the infracted area in % compared to that of the control ([9]; 1 mg/kg iv. 6x in every 30 min, first treatment 180 min after occlusion): 16% | Decrease of the infracted area in % compared to that of the control [9, 18]: 46* % | Neuroprotective activity when administered 3 h after the occlusion ([9]; result in words): significant activity | ED50 [10]: 31 mg/kg | Histological symptoms (change, %) ([15]; female rats): −5% | Histological symptoms (change, %) ([15]; male rats): −20% | ED50 [11]: 10.7 mg/kg | ED50 [12]: 5.4 mg/kg | ED50 [13]: 35.4 mg/kg | ED50 [14, 19]: 11.5 mg/kg | ED50 [14, 20]: 13.1 mg/kg | melting point: 125 to 130 °C

C[C@@H]1Cc2cc3c(cc2C(c2ccc(N)cc2)=NN1c1nncs1)OCO3 [Example 84, (R)-5-(4-Aminophenyl)-8-methyl-7-(1,3,4-thiadiazol-2-yl)-8,9-dihydro-7H-1,3-dioxolo-[4,5-h][2,3]benzodiazepine]
ED50 [1]: 16.6 mg/kg | IC50 [2]: 850 nM | ED50 [4]: 6.8 mg/kg | ED50 [5]: 16.7 mg/kg | ED50 [6]: 17.1 mg/kg | ED50 [7]: 77.2 mg/kg | IC50 [8]: 90 nM | ED50 [10]: 17 mg/kg | ED50 [11]: 12.8 mg/kg | ED50 [12]: 1.4 mg/kg | ED50 [13]: 18.2 mg/kg | ED50 [14, 19]: 10 to 15 mg/kg | ED50 [14, 20]: 12.5 mg/kg | melting point: 219 to 220 °C

Cc1cc(C2=NN(c3nncs3)[C@H](C)Cc3cc4c(cc32)OCO4)ccc1N [Example 167, (R)-5-(4-Amino-3-methylphenyl)-8-methyl-7-(1,3,4-thiadiazol-2-yl)-8,9-dihydro-7H-1,3-dioxolo-[4,5-h][2,3]benzodiazepine]
ED50 [16]: 4.81 mg/kg | ED50 [1]: 10.8 mg/kg | IC50 [2]: 64 nM | ED50 [4]: 10.3 mg/kg | ED50 [5]: 8.33 mg/kg | ED50 [6]: 9.66 mg/kg | IC50 [8]: 70 nM | ED50 [17]: 7.73 mg/kg | ED50 [10]: 12.7 mg/kg | ED50 [11]: 4.24 mg/kg | ED50 [12]: 0.8 mg/kg | ED50 [13]: 10.5 mg/kg | ED50 [14, 19]: 4.78 mg/kg | ED50 [14, 20]: 5.85 mg/kg | melting point: 143 to 148 °C
